Data: ChEMBL document CHEMBL5365460, “Structural Mechanism and Inhibitors Targeting EGFR Exon 20 Insertion (Ex20ins) Mutations” (J Med Chem, 2023)
Values belong to the compound of their own block, whether it stands above or below them.

Assays:
[1] = Selectivity index, ratio of IC50 for antiproliferative activity against mouse BaF3 cells harboring wild type EGFR to IC50 for antiproliferative activity against mouse Ba/F3 EGFR-V769_D770insASV cells; format: functional
BaF3 [2] = experiment: Antiproliferative activity against mouse BaF3 cells harboring wild type EGFR; format: functional, cell-based
[3] = Antiproliferative activity against mouse Ba/F3 EGFR-V769_D770insASV cells; format: functional, cell-based
[4] = Antiproliferative activity against mouse Ba/F3 EGFR-D770-N771ins_SVD cells; format: functional, cell-based
BaF3 [5] = experiment: Antiproliferative activity against mouse BaF3 cells harboring EGFR-D770-N771insNPG mutant incubated for 48 hrs by Cell Titer-Glo assay; format: functional, cell-based; settings: BaF3, 48 h
BaF3 [6] = experiment: Antiproliferative activity against mouse BaF3 cells harboring wild type EGFR incubated for 48 hrs by Cell Titer-Glo assay; format: functional, cell-based; settings: BaF3, 48 h
[7] = Antiproliferative activity against mouse Ba/F3 EGFR-V769_D770insASV cells incubated for 48 hrs by Cell Titer-Glo assay; format: functional, cell-based
[8] = Antiproliferative activity against mouse Ba/F3 EGFR-D770-N771ins_SVD cells incubated for 48 hrs by Cell Titer-Glo assay; format: functional, cell-based
[9] = Antiproliferative activity against mouse Ba/F3 EGFR-H773-V774ins_NPH cells; format: functional, cell-based
[10] = Antiproliferative activity against mouse Ba/F3 EGFR-A763_Y764insFQEA cells; format: functional, cell-based
[11] = Antiproliferative activity against mouse Ba/F3 EGFR-V769_D770insASV cells incubated for 3 days by Cell Titer-Glo assay; format: functional, cell-based; settings: 72 h
[12] = Antiproliferative activity against mouse Ba/F3 EGFR-D770-N771ins_SVD cells incubated for 3 days by Cell Titer-Glo assay; format: functional, cell-based; settings: 72 h
BaF3 [13] = experiment: Antiproliferative activity against mouse BaF3 cells harboring wild type EGFR incubated for 3 days by Cell Titer-Glo assay; format: functional, cell-based; settings: BaF3, 72 h
BaF3 [14] = experiment: Antiproliferative activity against mouse BaF3 cells harboring EGFR-D770-N771insNPG mutant incubated for 3 days by Cell Titer-Glo assay; format: functional, cell-based; settings: BaF3, 72 h
[15] = Antiproliferative activity against mouse Ba/F3 EGFR-H773-V774ins_NPH cells incubated for 3 days by Cell Titer-Glo assay; format: functional, cell-based; settings: 72 h
[16] = Antiproliferative activity against mouse Ba/F3 EGFR-A763_Y764insFQEA cells incubated for 3 days by Cell Titer-Glo assay; format: functional, cell-based; settings: 72 h
BaF3 [17] = experiment: Antiproliferative activity against mouse Ba/F3 cells harboring EGFR-D770-N771ins_G mutant incubated for 3 days by Cell Titer-Glo assay; format: functional, cell-based; settings: BaF3, 72 h
NIH3T3 [18] = experiment: Antiproliferative activity against mouse NIH/3T3 cells harboring wild type EGFR incubated for 72 hrs by Cell Titer-Glo assay; format: functional, cell-based; settings: NIH3T3, 72 h
[19] = target: Epidermal growth factor receptor (Homo sapiens, UniProt P00533); experiment: Inhibition of wildtype EGFR (unknown origin) phosphorylation
NIH3T3 [20] = experiment: Antiproliferative activity against mouse NIH/3T3 cells harboring EGFR-D770-N771ins_SVD incubated for 72 hrs by Cell Titer-Glo assay; format: functional, cell-based; settings: NIH3T3, 72 h
BaF3 [21] = experiment: Antiproliferative activity against mouse Ba/F3 cells harboring EGFR-H773-V774ins_PH mutant incubated for 3 days by Cell Titer-Glo assay; format: functional, cell-based; settings: BaF3, 72 h
[22] = target: Epidermal growth factor receptor (Homo sapiens, UniProt P00533, D770-N771INSNPG); experiment: Inhibition of EGFR-D770-N771insNPG mutant (unknown origin) phosphorylation
NIH3T3 [23] = experiment: Antiproliferative activity against mouse NIH/3T3 cells harboring EGFR-A763_Y764insFQEA incubated for 72 hrs by Cell Titer-Glo assay; format: functional, cell-based; settings: NIH3T3, 72 h
NIH3T3 [24] = experiment: Antiproliferative activity against mouse NIH/3T3 cells harboring EGFR-H773-V774ins_NPH incubated for 72 hrs by Cell Titer-Glo assay; format: functional, cell-based; settings: NIH3T3, 72 h
NIH3T3 [25] = experiment: Antiproliferative activity against mouse NIH/3T3 cells harboring EGFR-V769_D770insASV incubated for 72 hrs by Cell Titer-Glo assay; format: functional, cell-based; settings: NIH3T3, 72 h
[26] = Selectivity index, ratio of IC50 for antiproliferative activity against mouse BaF3 cells harboring wild type EGFR to IC50 for antiproliferative activity against mouse BaF3 cells harboring EGFR-D770-N771insNPG mutant; format: functional
[27] = Selectivity index, ratio of IC50 for antiproliferative activity against mouse BaF3 cells harboring wild type EGFR to IC50 for antiproliferative activity against mouse Ba/F3 EGFR-D770-N771ins_SVD cells; format: functional
[28] = Selectivity index, ratio of IC50 for antiproliferative activity against mouse BaF3 cells harboring wild type EGFR to IC50 for antiproliferative activity against mouse Ba/F3 EGFR-H773-V774ins_NPH cells; format: functional
[29] = Selectivity index, ratio of IC50 for antiproliferative activity against mouse BaF3 cells harboring wild type EGFR to IC50 for antiproliferative activity against mouse Ba/F3 EGFR-A763_Y764insFQEA cells; format: functional
[30] = Antiproliferative activity against human CUTO14 cells harboring EGFR V769_D770insASV mutant incubated for 72 hrs by Cell Titer-Glo assay; format: functional, cell-based; settings: CUTO14, 72 h
BaF3 [31] = experiment: Antiproliferative activity against mouse BaF3 cells harboring EGFR exon 20 insertion mutant incubated for 72 hrs by Cell Titer-Glo assay; format: functional, cell-based; settings: BaF3, 72 h
[32] = Antiproliferative activity against mouse Ba/F3 EGFR-A763_Y764insFQEA cells incubated for 72 hrs by CCK-8 assay; format: functional, cell-based
[33] = Antiproliferative activity against mouse Ba/F3 EGFR-H773-V774ins_NPH cells incubated for 72 hrs by CCK-8 assay; format: functional, cell-based
[34] = Antiproliferative activity against mouse Ba/F3 EGFR-V769_D770insASV cells incubated for 72 hrs by CCK-8 assay; format: functional, cell-based
[35] = Antiproliferative activity against human YUL-0019 cells harboring EGFR N771delinsFH mutant incubated for 72 hrs by Cell Titer-Glo assay; format: functional, cell-based; settings: YUL-0019, 72 h
BaF3 [36] = experiment: Potency index, ratio of afatinib IC50 to test compound IC50 for antiproliferative activity against mouse BaF3 cells harboring EGFR exon 20 insertion mutant incubated for 72 hrs by Cell Titer-Glo assay; format: functional
[37] = Antiproliferative activity against mouse Ba/F3 EGFR-D770-N771ins_SVD cells incubated for 72 hrs by CCK-8 assay; format: functional, cell-based
[38] = Metabolic stability in human hepatocytes assessed as intrinsic clearance measured per 10^6 cells at 100 uM measured upto 100 mins by LC-MS/MS analysis; format: ADME, cell-based, Hepatocyte; settings: read-out: CLH
[39] = Antiproliferative activity against human CUTO14 cells harboring EGFR V769_D770insASV mutant incubated for 72 hrs by MTS assay; format: functional, cell-based; settings: CUTO14, 72 h

Sequence of Epidermal growth factor receptor (Homo sapiens, UniProt P00533, D770-N771INSNPG) (P00533 whole entry, looked up, stated change not applied): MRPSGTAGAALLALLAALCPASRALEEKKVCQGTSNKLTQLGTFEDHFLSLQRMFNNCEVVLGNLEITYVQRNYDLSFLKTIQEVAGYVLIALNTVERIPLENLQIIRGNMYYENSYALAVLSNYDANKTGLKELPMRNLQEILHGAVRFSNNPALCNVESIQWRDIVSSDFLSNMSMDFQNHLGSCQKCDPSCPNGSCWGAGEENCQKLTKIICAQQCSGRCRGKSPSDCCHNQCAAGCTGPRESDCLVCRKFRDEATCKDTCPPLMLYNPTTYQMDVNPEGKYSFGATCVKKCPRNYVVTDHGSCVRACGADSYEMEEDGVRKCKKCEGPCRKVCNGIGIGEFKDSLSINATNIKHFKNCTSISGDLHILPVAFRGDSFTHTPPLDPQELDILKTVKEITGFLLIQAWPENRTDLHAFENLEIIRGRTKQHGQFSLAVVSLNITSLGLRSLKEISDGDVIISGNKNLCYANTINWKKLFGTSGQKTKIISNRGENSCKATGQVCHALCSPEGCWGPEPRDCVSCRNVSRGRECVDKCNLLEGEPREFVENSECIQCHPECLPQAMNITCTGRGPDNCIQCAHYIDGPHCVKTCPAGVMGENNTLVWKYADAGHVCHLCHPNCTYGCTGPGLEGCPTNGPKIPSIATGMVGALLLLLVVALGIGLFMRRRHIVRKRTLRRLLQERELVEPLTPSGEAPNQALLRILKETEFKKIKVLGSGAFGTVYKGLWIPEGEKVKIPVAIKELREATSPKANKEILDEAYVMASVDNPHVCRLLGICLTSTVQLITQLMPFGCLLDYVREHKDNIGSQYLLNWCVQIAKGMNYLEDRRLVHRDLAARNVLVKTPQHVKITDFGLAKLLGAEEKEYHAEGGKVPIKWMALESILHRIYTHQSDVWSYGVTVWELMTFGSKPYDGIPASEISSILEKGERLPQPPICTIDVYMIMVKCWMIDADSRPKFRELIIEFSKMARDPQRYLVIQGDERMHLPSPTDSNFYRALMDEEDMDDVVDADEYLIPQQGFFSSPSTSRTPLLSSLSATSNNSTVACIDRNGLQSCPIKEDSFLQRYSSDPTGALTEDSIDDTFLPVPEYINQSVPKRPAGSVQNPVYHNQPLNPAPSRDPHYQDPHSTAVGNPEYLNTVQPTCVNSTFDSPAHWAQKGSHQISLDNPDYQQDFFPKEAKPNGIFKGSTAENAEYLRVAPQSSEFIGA
Sequence of Epidermal growth factor receptor (Homo sapiens, UniProt P00533) (P00533 whole entry): as the sequence (P00533 whole entry, looked up, stated change not applied) above

IC50 (BaF3 [2]): 7.6 nM
SMILES: C=CC(=O)Nc1cccc(N(C(=O)OCc2ccc(F)cc2)c2ccnc(Nc3cnn(C)c3)n2)c1
Ratio IC50 [1]: 0.22
IC50 [3]: 34 nM
IC50 [4]: 15 nM

IC50 (BaF3 [13]): 3.8 nM
IC50 (BaF3 [14]): 40 nM
SMILES: CN(C)C/C=C/C(=O)Nc1cc2c(Nc3ccc(F)c(Cl)c3)ncnc2cc1O[C@H]1CCOC1 [AFATINIB]
IC50 [11]: 46 nM
IC50 [12]: 163 nM
Ratio IC50 [1]: 0.08
IC50 [15]: 102 nM
IC50 [16]: 2.7 nM

IC50 (BaF3 [13]): 34.5 nM
IC50 (BaF3 [14]): 4.3 nM
SMILES: C=CC(=O)Nc1cc(Nc2ncc(C(=O)OC(C)C)c(-c3cn(C)c4ccccc34)n2)c(OC)cc1N(C)CCN(C)C [MOBOCERTINIB]
IC50 [11]: 10.9 nM
IC50 [12]: 22.5 nM
Ratio IC50 [26]: 1.5
Ratio IC50 [27]: 1.5
Ratio IC50 [1]: 3.17
Ratio IC50 [28]: 1.5
Ratio IC50 [29]: 1.5
IC50 [15]: 18.1 nM
IC50 [16]: 11.8 nM

IC50 (BaF3 [31]): 1 nM
SMILES: C=CC(=O)N1CCC(Oc2cc3c(Nc4ccc(Cl)c(Cl)c4F)ncnc3cc2OC)CC1 [POZIOTINIB]
IC50 [30]: 1.8 nM
IC50 [32]: 0.7 nM
IC50 [33]: 2.2 nM
IC50 [34]: 4.8 nM
IC50 [35]: 0.3 nM
Ratio IC50 (BaF3 [36]): ~40
IC50 [37]: 2.7 nM

IC50 (BaF3 [13]): 12.7 nM
hepatocyte CLint at 100 µM [38]: 2.77 µL/min/1e6 cells
SMILES: C=CC(=O)Nc1cc(Nc2nccc(Nc3cc(Cl)c(F)cc3C(C)(C)O)n2)c(OC)cc1N1CC[C@@H](N(C)C)C1 [SUNVOZERTINIB]
IC50 [11]: 22.1 nM
Ratio IC50 [1]: 0.57
IC50 [15]: 29.6 nM

IC50 (BaF3 [2]): ~1000 nM
SMILES: C=CC(=O)Nc1cc2c(Nc3ccc(OCc4ccccn4)c(Cl)c3)ncnc2cc1OCCN1CCOCC1 [TUXOBERTINIB]
IC50 [4]: < 100 nM

More lines, now with the values behind:

SMILES: COc1c(F)cccc1Nc1c(-c2ccncc2OCC(C)(C)OC)[nH]c2c1C(=O)NCC2
IC50 (BaF3 [5]): 12.8 nM
Ratio IC50 [1]: 25.9
IC50 (BaF3 [6]): 397 nM
IC50 [7]: 15.3 nM
IC50 [8]: 11.9 nM

SMILES: COc1c(Cl)cccc1Nc1c(-c2ccncc2C#C[C@@]2(C)CCCN2C(=O)/C=C/CN(C)C)[nH]c2c1C(=O)NCC2
IC50 [9]: 16.7 nM
IC50 [3]: 5.62 nM
IC50 [10]: 7.7 nM
IC50 [4]: 6.22 nM

SMILES: C=CC(=O)N[C@H]1C=C(C)c2c(-c3cnc4ccccc4c3)c3c(N)ncnc3n2C1 [CLN-081]
IC50 (BaF3 [17]): 5 nM
IC50 (NIH3T3 [18]): 368 nM
IC50 [11]: 5 nM
IC50 [12]: 5 nM
IC50 [19]: 8 nM
IC50 (NIH3T3 [20]): 23.4 nM
IC50 (BaF3 [13]): 676 nM
IC50 (BaF3 [21]): 5 nM
IC50 [22]: 7.4 nM
IC50 (NIH3T3 [23]): < 4.48 nM
IC50 (NIH3T3 [24]): 66.7 nM
IC50 [15]: 5 nM
IC50 (NIH3T3 [25]): 78.2 nM
IC50 [16]: 5 nM

SMILES: C#Cc1cccc(Nc2ncnc3cc(OCCOC)c(OCCOC)cc23)c1 [ERLOTINIB]
IC50 [11]: 1340 nM
IC50 [12]: 3480 nM
IC50 (BaF3 [13]): 71 nM
Ratio IC50 [1]: 0.05
IC50 (BaF3 [14]): 2320 nM
IC50 [15]: 2700 nM
IC50 [16]: 214 nM

SMILES: C=CC(=O)Nc1cc(Nc2nccc(-c3cn(C)c4ccccc34)n2)c(OC)cc1N(C)CCN(C)C [OSIMERTINIB]
IC50 [11]: 173 nM
IC50 [12]: 576 nM
IC50 (BaF3 [13]): 350 nM
Ratio IC50 [1]: 2.02
IC50 (BaF3 [14]): 57 nM
IC50 [15]: 469 nM
IC50 [16]: 87 nM

SMILES: CN(C)C/C=C/C(=O)Nc1cc2c(Nc3ccc(Cl)c(Br)c3)ncnc2cn1 [TH-4000E]
IC50 [32]: < 0.5 nM
IC50 [33]: 9.9 nM
IC50 [39]: 72 nM
IC50 [34]: 7.6 nM
IC50 [37]: 7.3 nM
